The record followed here is patent publication US20240368556A1, “LIVER ORGANOID MODEL FOR HYPERBILIRUBINEMIA AND METHODS OF MAKING AND USING SAME” (CHILDREN’S HOSPITAL MEDICAL CENTER, priority 2021, published 2024).

Holding throughout (type): cell-based, human
One series relates to CYP3A4. Description: CYP3A4 activity assay (P450-Glo) after rifampicin. As to the method:
(§1) CYP3A4 and CYP1A2 assays were performed by harvesting HLOs, washing in PBS, plating them into a 96 well assay plate, and treating them with rifampicin and omeprazole, respectively, for 24 hours. The assays were then performed using P450-Glo CYP3A4 and CYP1A2 Assay (Promega) and normalized using CellTiter-Glo Luminescent Cell Viability Assay according to manufacturer instructions.

The next series relates to CYP1A2. Description: CYP1A2 activity assay (P450-Glo) after omeprazole. As for the experimental part: as §1
Series [1] deals with liver organoids. Description: Immunofluorescence of mature liver enzymes and transport proteins. The following applies: 1 mg/L bilirubin (FIGS. 1F-H). As for the experimental part:
For maturation induction in HLOs, the day 15 organoids were fed with complete HCM with supplements in addition to low dose bilirubin (1 mg/L). This treatment was continued until day 30 when the organoids were harvested. […] For whole mount immunostains, the organoids were fixed in 4% PFA, permeabilized with 0.1% PBST, blocked with 5% Normal Donkey Serum in 0.1% PBST, and stained with the appropriate primary and secondary antibodies. The images were captured on the Nikon A1 inverted confocal microscope.

In series [2] the test system is liver organoids. Description: Hyperbilirubinemia induction: HLOs treated with varying bilirubin concentrations (brightfield). The following applies: bilirubin 1, 2, 5 or 10 mg/L, 1 and 4 days (FIG. 3B). As to the method: (§2) On day 27, the mature organoids were treated with bilirubin (1-10 mg/L), doxycycline (100 ng/mL; added 3 days prior to activate gene expression) and/or additionally with drugs such as hydrocortisone, dexamethasone, ketoconazole and mifepristone (1-2 μM for each) for 5 days and then harvested for downstream assays. Bilirubin assay was performed using a colorimetric kit (ab235627 from Abcam). RNA was isolated using the RNeasy mini kit (Qiagen, Hilden, Germany). Reverse transcription was carried out using the High-Capacity cDNA Reverse Transcription Kit (Thermo Fisher Scientific Inc.) according to manufacturer's protocol. qPCR was carried out using TaqMan gene expression master mix (Applied Biosystems) on a QuantStudio 5 Real-Time PCR System (Thermo Fisher Scientific Inc.). All primers and probe information for each target gene was obtained from the Universal ProbeLibrary Assay Design Center (available on the World Wide Web at lifescience.roche.com/en_us/brands/universal-probe-library.html). Images were captured on the KEYENCE BZ-X710 Fluorescence Microscope (Keyence).

The subject of a further series is CNS HLOs. Description: Bilirubin toxicity in Crigler-Najjar syndrome liver organoids (brightfield). The following applies: 10 mg/L bilirubin, inactive UGT1A1 gene (FIG. 3H).
The subject of another series is mGULO organoids. Description: Survival and morphology of mGULO organoids with doxycycline induction. The following applies: Dox 10, 100, 1000 ng/mL, with bilirubin (FIG. 2O).
Series [3] deals with liver organoids. Description: Bilirubin assay measuring unconjugated and conjugated bilirubin in liver organoids. The following applies: liver organoids in 10 mg/L bilirubin; drug 1 or 5 μM (FIG. 4B, 4D). As to the method: Bilirubin levels were measured by collecting the supernatant from HLOs treated with bilirubin and serum from rats. The supernatant and serum were assayed with Bilirubin Assay Kit (Total and Direct, Colorimetric) (abcam) and Bilirubin Assay Kit (Sigma-Aldrich) according to manufacturer instructions.

The test system of another series is UGT1A1. Description: RT-qPCR of UGT1A1 in liver organoids. The following applies: 10 mg/L bilirubin plus drug vs 10 mg/L bilirubin alone (FIG. 4E). As to the method:
as §2
(In qPCR the cycle at which signal appears reflects the starting amount.)

In another series the test system is NRF2. Description: RT-qPCR of NRF2 in liver organoids. The following applies: 10 mg/L bilirubin plus drug vs 10 mg/L bilirubin alone (FIG. 4E). As to the method: as §2
Series [4] concerns liver organoids. Description: RNA sequencing of HLOs. The following applies: 10 mg/L bilirubin and 1 μM mifepristone vs control (FIG. 4F). As for the experimental part:
RNA was isolated using the RNeasy mini kit (Qiagen). […] All the samples were amplified with TaqMan Gene Expression Assays and normalized with 18S rRNA Endogenous Control. For RNA sequencing, the extracted RNA quality was evaluated with an Agilent 2100 Bioanalyzer (Agilent). A sequence library was prepared using a TruSeq Stranded mRNA kit (Illumina) and sequenced using NovaSeq 6000 (Illumina). Reads were aligned to human genome assembly hg38 and quantified using the quasi-mapper Salmon (v1.8.0). Gene-expression analysis was performed using the R Bioconductor package DESeq2 (v1.36.0). The read count matrix was normalized by size factors, and a variance stabilizing transformation (VST) was applied to the normalized expression data. The data was visualized using clusterProfiler (v.4.4.1) and pheatmap (v1.0.12) packages. […] RNA sequencing parameters were 150 bp paired-end sequencing at a depth of 20M reads per samples. Fastq read files for each sample were obtained and then aligned using Salmon, a quasi-mapping tool that aligns and quantifies transcripts using RNA-seq data. Raw transcript counts and normalized transcripts per million (TPM) values were obtained and analyzed for differential expression with DESeq2. […]

The subject of the next series is UGT1A1 gene. Description: ChIP-PCR and ChIP-qPCR of hyperbilirubinemic organoids. The following applies: 10 mg/L bilirubin, 1 μM drug (FIG. 4H).

Entries after “also recorded” stand apart in the source; their conditions may differ.

Protocol for CNS HLOs: On day 27, the mature organoids were treated with bilirubin (1-10 mg/L), doxycycline (100 ng/mL; added 3 days prior to activate gene expression) and/or additionally with drugs such as hydrocortisone, dexamethasone, ketoconazole and mifepristone (1-2 μM for each) for 5 days and then harvested for downstream assays. […] Images were captured on the KEYENCE BZ-X710 Fluorescence Microscope (Keyence).

Take `C=CC1=C(C)/C(=C/c2[nH]c(Cc3[nH]c(/C=C4\NC(=O)C(C)=C4C=C)c(C)c3CCC(=O)O)c(CCC(=O)O)c2C)NC1=O` [bilirubin]: the CYP3A4 activity result in the series with CYP3A4 (1 mg/L bilirubin-treated organoids, after rifampicin, vs untreated control (FIG. 1E)) was “increased cytochrome activity”. Also, the CYP1A2 activity result in the series on CYP1A2 (1 mg/L bilirubin-treated organoids, after omeprazole, vs untreated control (FIG. 1E)) is “increased cytochrome activity”. Further, the “expression of CYP2E1, CYP7A1, MPR1, MRP3, PROX1, OATP2 (immunofluorescence)” value in the series on liver organoids [1] is “expressed mature liver enzymes and transport proteins”. The “organoid morphology and intracellular bilirubin accumulation” value with liver organoids [2] is “significant morphological changes and intracellular accumulation of bilirubin”. The “organoid toxicity in CNS HLOs” value in the series with CNS HLOs is “liver organoid toxicity”.
`C[C@H]1c2cccc(O)c2C(=O)C2=C(O)[C@]3(O)C(=O)C(C(N)=O)=C(O)[C@@H](N(C)C)[C@@H]3[C@@H](O)[C@@H]21` [doxycycline]: the CYP3A4 activity result in the series with CYP3A4 (mGULO organoids, Dox plus low dose bilirubin, rifampicin insult (FIG. 2P)) is listed as “increased”. In the series with CYP1A2 (mGULO organoids, Dox plus low dose bilirubin, omeprazole insult (FIG. 2P)), the CYP1A2 activity entry is “increased”. In the series with mGULO organoids, the “gross morphology of mGULO organoids” value was “maintain their gross morphology”.
Regarding `C[C@]12CCC(=O)C=C1CC[C@@H]1[C@@H]2[C@@H](O)C[C@@]2(C)[C@H]1CC[C@]2(O)C(=O)CO` [hydrocortisone], the “bilirubin conjugation (unconjugated vs conjugated bilirubin)” value with liver organoids [3] is “decreased bilirubin conjugation ability”. Further, the UGT1A1 expression result in the series on UGT1A1 is on record as “depressed”.
On to `CC(=O)N1CCN(c2ccc(OCC3COC(Cn4ccnc4)(c4ccc(Cl)cc4Cl)O3)cc2)CC1` (stereo not drawn) [ketoconazole], for which the “bilirubin conjugation (unconjugated vs conjugated bilirubin)” value in the series on liver organoids [3] was “improved conjugation and metabolism of bilirubin; also recorded: increased bilirubin conjugation”. For the same compound, the UGT1A1 expression result in the series with UGT1A1 is “elevated”. The NRF2 expression result with NRF2 is “improved”.
Take `CC#C[C@]1(O)CC[C@H]2[C@@H]3CCC4=CC(=O)CCC4=C3[C@@H](c3ccc(N(C)C)cc3)C[C@@]21C` [mifepristone]: the “bilirubin conjugation (unconjugated vs conjugated bilirubin)” value with liver organoids [3] is “improved conjugation and metabolism of bilirubin; also recorded: increased bilirubin conjugation”. For the same compound, the UGT1A1 expression result in the series with UGT1A1 is reported as “elevated”. Further, the NRF2 expression entry in the series on NRF2 is on record as “improved”. In addition, in the series with liver organoids [4], the “gene expression / enriched pathways” value is recorded as “enrichment of many genes involved in liver function”. Besides, the “silencing of the UGT1A1 gene (MECP2)” value in the series with UGT1A1 gene is listed as “reverses this silencing”.
